How the values were obtained:
[1] = tested on: rats (Sprague-Dawley, male); conditions: rat, in vivo
Experimental: Veratridine was injected intra-plantar at 30 micrograms.
Known preclinical and clinical analgesics were tested to see if they could prevent veratridine-induced behaviors.

male mice (CD1 strain) = conditions: mouse, in vivo
NaV1.9 = NaV1.9 (Rattus norvegicus, UniProt O88457); conditions: cited from earlier work
NaV1.8 = NaV1.8 (Rattus norvegicus, UniProt Q62968); conditions: cited from earlier work
Sequence of NaV1.8 (Q62968 whole entry, looked up): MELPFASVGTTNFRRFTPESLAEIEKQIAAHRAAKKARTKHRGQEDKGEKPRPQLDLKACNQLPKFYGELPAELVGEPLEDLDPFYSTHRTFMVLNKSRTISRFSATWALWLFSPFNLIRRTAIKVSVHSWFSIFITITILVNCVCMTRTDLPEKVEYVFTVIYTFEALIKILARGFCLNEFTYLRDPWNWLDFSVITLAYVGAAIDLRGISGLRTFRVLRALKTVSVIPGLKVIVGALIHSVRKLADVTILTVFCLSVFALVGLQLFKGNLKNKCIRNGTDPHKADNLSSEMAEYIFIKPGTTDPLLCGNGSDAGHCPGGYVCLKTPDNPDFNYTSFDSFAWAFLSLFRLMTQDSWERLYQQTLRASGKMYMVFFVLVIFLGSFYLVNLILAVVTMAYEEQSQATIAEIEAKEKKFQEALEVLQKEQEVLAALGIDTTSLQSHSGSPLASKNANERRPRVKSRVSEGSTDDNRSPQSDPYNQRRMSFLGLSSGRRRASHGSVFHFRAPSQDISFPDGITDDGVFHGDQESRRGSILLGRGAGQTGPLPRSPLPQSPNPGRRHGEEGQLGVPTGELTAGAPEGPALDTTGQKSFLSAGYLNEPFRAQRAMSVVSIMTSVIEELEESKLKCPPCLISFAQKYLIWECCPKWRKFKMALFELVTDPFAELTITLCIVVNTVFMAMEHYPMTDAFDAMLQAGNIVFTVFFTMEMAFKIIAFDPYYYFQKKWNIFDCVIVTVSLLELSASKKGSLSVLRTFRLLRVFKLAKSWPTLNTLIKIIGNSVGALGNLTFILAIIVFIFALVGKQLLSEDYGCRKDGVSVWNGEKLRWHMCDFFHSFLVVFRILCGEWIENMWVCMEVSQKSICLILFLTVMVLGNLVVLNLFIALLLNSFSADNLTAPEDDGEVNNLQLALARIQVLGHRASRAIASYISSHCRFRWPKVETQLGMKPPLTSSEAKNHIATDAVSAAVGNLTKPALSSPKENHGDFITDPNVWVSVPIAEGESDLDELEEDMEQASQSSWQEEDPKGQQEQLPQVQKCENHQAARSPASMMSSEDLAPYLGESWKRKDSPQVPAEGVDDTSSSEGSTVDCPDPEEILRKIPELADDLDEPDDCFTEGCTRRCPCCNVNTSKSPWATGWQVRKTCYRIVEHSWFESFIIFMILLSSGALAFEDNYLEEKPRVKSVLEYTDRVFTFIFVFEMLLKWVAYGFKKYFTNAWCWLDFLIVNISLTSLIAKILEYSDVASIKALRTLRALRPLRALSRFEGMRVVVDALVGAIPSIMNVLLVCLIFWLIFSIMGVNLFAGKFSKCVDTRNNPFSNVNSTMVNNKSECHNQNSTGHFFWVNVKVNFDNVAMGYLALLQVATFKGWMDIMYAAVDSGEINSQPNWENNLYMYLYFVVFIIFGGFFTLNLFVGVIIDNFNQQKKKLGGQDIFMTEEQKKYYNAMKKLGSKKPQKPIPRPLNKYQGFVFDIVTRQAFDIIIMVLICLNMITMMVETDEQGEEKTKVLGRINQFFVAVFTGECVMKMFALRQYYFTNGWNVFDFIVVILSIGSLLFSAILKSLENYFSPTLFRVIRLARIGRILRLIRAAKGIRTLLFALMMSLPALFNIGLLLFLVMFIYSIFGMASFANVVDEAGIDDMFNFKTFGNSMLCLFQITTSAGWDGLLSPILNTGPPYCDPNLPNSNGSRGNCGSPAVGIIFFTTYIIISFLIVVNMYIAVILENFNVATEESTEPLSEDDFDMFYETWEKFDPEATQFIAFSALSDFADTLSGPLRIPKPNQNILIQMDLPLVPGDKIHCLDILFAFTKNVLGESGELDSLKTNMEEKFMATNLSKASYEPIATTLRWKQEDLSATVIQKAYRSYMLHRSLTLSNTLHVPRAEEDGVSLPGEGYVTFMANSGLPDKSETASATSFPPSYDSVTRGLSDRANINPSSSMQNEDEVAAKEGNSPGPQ

NaV1.5 = NaV1.5 (Rattus norvegicus, UniProt P15389); conditions: cited from earlier work
hNaV1.7 = biological target: T1, hNaV1.7 (Homo sapiens, UniProt Q15858); type: cell-based
T1 construct: expressed in transfected cells; host or cells: HEK 293
T1 sequence (Q15858 whole entry): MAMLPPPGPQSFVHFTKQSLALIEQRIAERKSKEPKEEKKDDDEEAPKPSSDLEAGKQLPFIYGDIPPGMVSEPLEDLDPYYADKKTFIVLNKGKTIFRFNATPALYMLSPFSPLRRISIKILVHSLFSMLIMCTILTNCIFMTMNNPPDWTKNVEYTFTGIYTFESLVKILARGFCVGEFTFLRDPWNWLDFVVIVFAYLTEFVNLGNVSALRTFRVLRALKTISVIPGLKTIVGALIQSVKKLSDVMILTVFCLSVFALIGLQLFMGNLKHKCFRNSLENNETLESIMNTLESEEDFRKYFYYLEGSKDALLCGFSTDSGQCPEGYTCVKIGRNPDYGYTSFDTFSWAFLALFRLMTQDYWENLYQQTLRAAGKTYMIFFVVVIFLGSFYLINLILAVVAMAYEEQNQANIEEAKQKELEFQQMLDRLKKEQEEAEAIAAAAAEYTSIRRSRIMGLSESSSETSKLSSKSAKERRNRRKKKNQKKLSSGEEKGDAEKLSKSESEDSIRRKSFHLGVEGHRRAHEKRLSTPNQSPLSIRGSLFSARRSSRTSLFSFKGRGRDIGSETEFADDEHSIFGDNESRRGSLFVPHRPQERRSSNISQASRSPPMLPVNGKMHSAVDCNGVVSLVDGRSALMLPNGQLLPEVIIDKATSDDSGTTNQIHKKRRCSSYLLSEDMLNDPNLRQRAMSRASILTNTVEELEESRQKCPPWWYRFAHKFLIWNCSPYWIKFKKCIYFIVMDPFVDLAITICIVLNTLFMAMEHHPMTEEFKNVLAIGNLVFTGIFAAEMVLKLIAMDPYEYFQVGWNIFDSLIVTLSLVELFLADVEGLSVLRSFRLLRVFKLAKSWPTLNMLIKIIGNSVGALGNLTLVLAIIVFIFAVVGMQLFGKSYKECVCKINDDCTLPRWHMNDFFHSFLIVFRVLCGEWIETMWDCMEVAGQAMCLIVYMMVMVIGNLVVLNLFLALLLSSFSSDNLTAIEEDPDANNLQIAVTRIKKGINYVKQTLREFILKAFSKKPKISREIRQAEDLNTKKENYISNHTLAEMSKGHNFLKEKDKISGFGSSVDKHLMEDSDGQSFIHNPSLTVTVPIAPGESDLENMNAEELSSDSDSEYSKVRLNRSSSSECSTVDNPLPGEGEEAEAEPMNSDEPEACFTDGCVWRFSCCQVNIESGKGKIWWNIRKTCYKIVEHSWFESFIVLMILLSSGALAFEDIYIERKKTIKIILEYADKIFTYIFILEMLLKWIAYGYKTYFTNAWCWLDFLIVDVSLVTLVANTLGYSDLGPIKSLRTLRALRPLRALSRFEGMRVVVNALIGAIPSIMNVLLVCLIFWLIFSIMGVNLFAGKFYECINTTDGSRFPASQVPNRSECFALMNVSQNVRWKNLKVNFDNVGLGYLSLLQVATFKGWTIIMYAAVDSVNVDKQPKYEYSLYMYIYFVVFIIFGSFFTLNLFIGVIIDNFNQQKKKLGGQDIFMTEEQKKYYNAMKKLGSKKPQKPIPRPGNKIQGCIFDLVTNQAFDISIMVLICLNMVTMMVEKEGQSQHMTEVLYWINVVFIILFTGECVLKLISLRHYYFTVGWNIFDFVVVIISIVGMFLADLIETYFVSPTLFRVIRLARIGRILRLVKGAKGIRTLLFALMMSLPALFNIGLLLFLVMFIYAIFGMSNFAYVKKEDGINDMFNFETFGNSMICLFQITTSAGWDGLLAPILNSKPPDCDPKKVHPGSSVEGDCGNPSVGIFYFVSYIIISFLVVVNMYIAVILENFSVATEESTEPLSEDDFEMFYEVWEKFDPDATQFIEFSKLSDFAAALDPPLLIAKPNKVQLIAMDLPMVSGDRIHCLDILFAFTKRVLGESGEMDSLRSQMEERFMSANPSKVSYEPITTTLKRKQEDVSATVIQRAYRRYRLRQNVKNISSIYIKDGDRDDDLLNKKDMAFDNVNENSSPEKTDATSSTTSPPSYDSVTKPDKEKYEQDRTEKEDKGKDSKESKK

Compound: CN1C(=O)CN=C(c2ccccc2)c2cc(Cl)ccc21 [Diazepam]
- Significant Reversal of Edema [1]: No
- Significant Reversal of Flinching [1]: No
- Significant Reversal of Lifting [1]: No
- sodium channel activator-induced pain-like behaviors (licking, flinching) [1]: ineffective

Compound: CNCC[C@H](Oc1cccc2ccccc12)c1cccs1 [Duloxetine, duloxetine]
- Significant Reversal of Edema [1]: No
- sodium channel activator-induced pain-like behaviors (licking, flinching) [1]: inhibited somewhat

Compound: NCC1(CC(=O)O)CCCCC1 [Gabapentin, gabapentin]
- Significant Reversal of Edema [1]: No

Compound: Cc1cccc(C)c1OCC(C)N (centres unmarked) [Mexiletine, mexiletine]
- effects of veratridine (lifting) (male mice (CD1 strain)): blocked
- lifting/licking response to deltamethrin (male mice (CD1 strain)): prevented the lifting/licking response
- lifting/licking response to grayanotoxin III (male mice (CD1 strain)): prevented the lifting/licking response
- Significant Reversal of Edema [1]: Yes
- Significant Reversal of Flinching [1]: Yes
- Significant Reversal of Lifting [1]: Yes
- veratridine-induced lifting and flinching behaviors ([1]; po): prevented in a dose-dependent manner

Compound: CN1CC[C@]23c4c5ccc(O)c4O[C@H]2[C@@H](O)C=C[C@H]3[C@H]1C5 [Morphine, morphine]
- Significant Reversal of Edema [1]: No

Compound: COc1ccc2cc([C@H](C)C(=O)O)ccc2c1 [Naproxen, naproxen]
- Significant Reversal of Edema [1]: No

Compound: NC1=N[C@H](O)[C@H]2[C@H]3O[C@]4(O)O[C@@H]([C@@H](O)[C@@]2(N1)[C@@H]4O)[C@]3(O)CO [TTX, tetrodotoxin]
- block by TTX (NaV1.9): resistant to block
- block by TTX (NaV1.8): resistant to block
- block by TTX (NaV1.5): resistant to block

Compound: CC1(C)[C@H](C(=O)O[C@H](C#N)c2cccc(Oc3ccccc3)c2)[C@@H]1C=C(Br)Br [deltamethrin]
- response to injected sodium channel modulator (male mice (CD1 strain)): produced a lifting/licking response

Compound: CC1(O)CC23CC(O)C4(O)C(CC(O)C4(C)C)C(C)(O)C2CCC1C3O (centres unmarked) [grayanotoxin III]
- response to injected sodium channel modulator (male mice (CD1 strain)): produced a lifting/licking response
- inactivation during the test pulse (hNaV1.7): did not inactivate
- voltage at which sodium currents start to be activated (hNaV1.7): −95 mV

Compound: COc1ccc(C(=O)O[C@H]2CC[C@@]3(C)[C@@H]4CC[C@H]5[C@]6(O)C[C@H](O)[C@@]7(O)[C@@H](CN8C[C@@H](C)CC[C@H]8[C@@]7(C)O)[C@]6(O)C[C@@]53O[C@]24O)cc1OC [veratridine, 4α,9-Epoxy-3β-veratroyloxy-5β-cevan-4β,12,14,16β,17,20-hexaol]
- lifting behavior caused by veratridine (male mice (CD1 strain)): caused equivalent lifting behavior
- pain-related behaviors caused by veratridine injected into the paw [1]: caused two separate pain-related behaviors
- side effects of veratridine [1]: variable neurological side effects

— patent US20120185956A1, “GLOBAL NAV1.7 KNOCKOUT MICE AND USES” (priority 2011, published 2012)
